Laboratory results as given in patent US20100184703A1, “USE OF PEPTIDE DERIVATIVES FOR TREATING PATHOLOGIES RESULTING FROM ISCHEMIA” (CHIESI FARMACEUTICI S.p.A., priority 2007, published 2010).
Peptide text beside a SMILES is read from it. * marks the point of attachment. X1 = COC(=O)CC(N*)C(=O)COc1c(F)cccc1F; Quinaldoyl = O=C(c1ccc2ccccc2n1)*

Test system: caspase-3
Experiment: Dosage of caspase-3 activity in myocardial tissue, chronic ischemia (PMI) model
Type: in vivo, rat
Conditions: PMI 72 h
Experimental: The analyses were performed on 2 myocardial ischemia models: a chronic ischemia model and an acute ischemia model, followed by myocardial reperfusion after 30 min of occlusion.
Said models were realized with Wistar male rats (180-220 g). The coronary artery was ligatured according to Pfeffer et al protocol.
Briefly, the rats were anaesthetized by intraperitoneal administration of a mixture of Ketamine (150 mg/kg) and Xylazine (15 mg/kg), then intubated and mechanically ventilated. The animals were submitted to a left and median thoracotomy. An occlusion of the coronary artery was done with a silk wire (size: 7.0) at the more proximal point and below the auricle.
In the case of chronic ischemia, the ligature was maintained and the rib cage of the animal reclosed (PMI model for post myocardial infarction).
The animals were sacrificed by a pentobarbital lethal injection. […]
The supernatant was taken and divided into 2 tubes for of each sample. The tubes were placed at −80° C. before performing the spectrophotometric proteic dosage (BCA: cupper (II) sulphate+solution A of bicinchronic acid, DO measured at 550 nm) in transparent, with flat bottom, 96-well plates. […]

`COC(=O)CC(NC(=O)[C@H](C)NC(=O)[C@@H](NC(=O)[C@H](CC(=O)OC)NC(=O)[C@@H](NC(=O)c1ccc2ccccc2n1)C(C)C)C(C)C)C(=O)COc1c(F)cccc1F` (stereo partly drawn) [D1, (3S,6S,9S,12S)-methyl 15-(2-(2,6-difluorophenoxy)acetyl)-3,9-diisopropyl-6-(2-methoxy-2-oxoethyl)-12-methyl-1,4,7,10,13-pentaoxo-1-(quinolin-2-yl)-2,5,8,11,14-pentaazaheptadecan-17-oate] (Quinaldoyl-VD(OMe)VA-X1) was tested. Which caspase-3 activity (pre-treated rats, 0.01 or 1 mg/kg) did it give?
The caspase-3 activity was “inhibition of the caspase-3 activity”.

And the caspase-3 basal activity (right ventricular (RV))?
Its caspase-3 basal activity is “weak inhibition”.
